{"source": "paper PMC10054553", "about": "“Development of the First ^18F-Labeled Radiohybrid-Based Minigastrin Derivative with High Target Affinity and Tumor Accumulation by Substitution of the Chelating Moiety” (Pharmaceutics, 2023)", "key": {"CCK-2R [1]": {"target": "T1, CCK-2R (Rattus norvegicus, UniProt P30553)", "T1 construct": "CCK-2R-expressing rat pancreatic cancer cells AR42J; host or cells: AR42J (rat pancreatic cancer cells)", "T1 sequence (P30553 1-452)": "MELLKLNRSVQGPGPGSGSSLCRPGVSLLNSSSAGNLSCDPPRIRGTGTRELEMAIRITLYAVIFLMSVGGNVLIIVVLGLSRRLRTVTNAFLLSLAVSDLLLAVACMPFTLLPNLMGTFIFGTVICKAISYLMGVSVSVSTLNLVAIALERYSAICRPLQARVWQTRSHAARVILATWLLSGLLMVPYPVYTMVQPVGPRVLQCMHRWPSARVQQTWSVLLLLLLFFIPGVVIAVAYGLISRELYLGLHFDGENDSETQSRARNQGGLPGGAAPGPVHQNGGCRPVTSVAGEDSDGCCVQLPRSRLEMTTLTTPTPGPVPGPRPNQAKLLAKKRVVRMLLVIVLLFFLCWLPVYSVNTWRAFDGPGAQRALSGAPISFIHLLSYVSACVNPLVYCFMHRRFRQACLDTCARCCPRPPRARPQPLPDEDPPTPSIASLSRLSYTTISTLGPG", "parameters": "method as in earlier work", "conditions": "natLu-labeled peptide; AR42J cells, [177Lu]Lu-DOTA-PP-F11N 0.3 pmol/well, 3 h, 37 °C, n = 3; identical conditions; cited from earlier work"}, "[2]": {"test": "µPET/CT imaging in an AR42J tumor-bearing mouse", "format": "in vivo, mice", "conditions": "100 pmol, n = 1", "description": "Biodistribution studies (n = 4) and µSPECT/CT as well as µPET/CT imaging (using a MILabs VECTor^4 small-animal SPECT/PET/OI/CT device, MILabs, Utrecht, The Netherlands) at 1 and 24 h p.i. were carried out as previously published. For all ^177Lu-labeled compounds, approximately 2–3 MBq (100 pmol)—and for the ^18F-labeled analog, approximately 7 MBq (100 pmol)—were administered. For all competition studies, 2.90 mg/kg (40 nmol) of [^natLu]Lu-DOTA-MGS5 (10^−3 M in phosphate-buffered saline) were co-administered.\nMoreover, the chemically identical compound, [^18F]F-[^natLu]Lu-DOTA-rhCCK-18, was evaluated via µPET/CT in a AR42J tumor-bearing mouse (n = 1), which confirmed high tumor and kidney uptake at 1 h p.i. and low overall off-target accumulation (Figure 5, right).\nFigure 5 Representative µSPECT/CT images of [^177Lu]Lu-DOTA-rhCCK-18 at 1 and 24 h p.i. (left) and µPET/CT image of [^18F]F-[^natLu]Lu-DOTA-rhCCK-18 at 1 h p.i. (right) in AR42J tumor-bearing CB17- SCID mice (100 pmol each). Tumors (T) are indicated by white arrows. Kidney (K) and tumor (T) values are depicted at the bottom. TEXT PRINTED IN THE PICTURE: [^177Lu]Lu-DOTA-rhCCK-18: T: 24.1 %ID/g (1 h p.i.); K: 97.2 %ID/g (1 h p.i.); T: 25.4 %ID/g (24 h p.i.); K: 134 %ID/g (24 h p.i.) | [^18F]F-[^natLu]Lu-DOTA-rhCCK-18: T: 31.2 %ID/g (1 h p.i.); K: 146 %ID/g (1 h p.i.)"}, "[3]": {"test": "Lipophilicity (logD7.4), n-octanol/PBS pH 7.4", "format": "physicochemical", "description": "Cell-based experiments and determination of lipophilicity (logD7.4) were performed as previously published. A detailed description of the in vitro experiments is provided in the Supplementary Materials.\nCell Culture. CCK-2R-expressing rat pancreatic cancer cells AR42J (CLS GmbH, Eppelheim, Germany) were cultivated in monolayers in CELLSTAR® cell culture flasks acquired from Greiner Bio-One GmbH (Frickenhausen, Germany) at 37°C in a humidified atmosphere (5% CO2) using a HERAcell 150i-Incubator (Thermo Fisher Scientific Inc., Waltham, United States). The nutrient medium RPMI 1640 medium, supplemented with 5 mM L-Gln 5 mL non-essential amino acids (100×) and 10% FCS, was used. Furthermore, a Dulbecco’s PBS solution with 0.1% EDTA (v/v) was applied to detach the cells for cell passaging. The detached cells were counted using a Neubauer hemocytometer (Paul Marienfeld, Lauda-Königshofen, Germany). In addition, all operations under sterile conditions were accomplished using a MSC-Advantage safety workbench (Thermo Fisher Scientific Inc., Waltham, United States).\nDetermination of IC50. AR42J cells (2.0 × 10^5 cells/well) were seeded into 24-well plates 24 ± 2 h prior to testing using 1 mL of nutrient medium (RPMI 1640, 5 mM L-Gln, 5 mL non-essential amino acids (100×), 10% FCS). Cells were incubated at 37°C in a humidified atmosphere (5% CO2).\nAfter the removal of the medium, each well was washed with 500 μL PBS. For the cell-based assay, 200 μL of the nutrient medium (+5% BSA), [ 177Lu]Lu-DOTA-PP-F11N (25 μL, 0.3 pmol) as a radiolabeled reference and 25 μL of the peptide of interest in increasing concentrations (10 −10 to 10−4 M) were added to the cells in triplicate. Thereafter, the assay was incubated for 3 h at 37°C and the supernatant was collected. The cells were washed with 300 μL PBS and the collected supernatant fractions were unified.\nAfter lysis of the cells with NaOH (300 μL, 1 N) for 15 min, the respective wells were washed with NaOH (300 μ L, 1 N) and both fractions were unified. The radioactivity of both the supernatant and the lysed fractions were quantified using a γ-counter (PerkinElmer Inc., Waltham, United States). The obtained data were evaluated via the GraphPad PRISM software (GraphPad Software Inc., La Jolla, United States), which calculates the half-maximal inhibitory concentration (IC50) of the peptides.\nInternalization Studies. For the determination of the internalization kinetics of the various peptides, AR42J cells (3.0 × 10^5 cells/well) were seeded into polylysine-coated 24-well plates, adding 1 mL of nutrient medium. Afterwards, the cells were incubated for 24 ± 2 h at 37°C in a humidified atmosphere […]\nOn the day of the experiment, the medium was removed, and each well was washed with nutrient medium (300 μL). Afterwards 200 μL of nutrient medium, 25 μL of the 177Lu-labeled peptide (0.3 pmol, n = 6) and either 25 μL of nutrient medium for internalization studies ( n = 3) or 25 μL of [natLu]Lu-DOTA-PP-F11N (10 μmol) for competition studies ( n = 3) were added. Thereafter, the assay was incubated for various time points (1, 2, 4 and 6 h) at 37°C in a humidified atmosphere (5% CO2). After incubation, the cells were put on ice for at least 1 min to stop internalization kinetics and the supernatant was collected. Then, the cells were washed with an ice-cold nutrient medium (300 μL) and both fractions were unified. […] The radioactivity of the supernatant, the acid wash and the lysed fractions were quantified using a γ-counter. […]"}, "[4]": {"tested_on": "AR42J tumor-bearing CB17-SCID mice", "conditions": "24 h p.i., 100 pmol; cited from earlier work"}, "CCK-2R [5]": {"target": "T1, CCK-2R", "parameters": "method as in earlier work", "conditions": "% of applied activity, 37 °C, AR42J cells, identical conditions, cited from earlier work"}}, "note": "Like-named read-outs stand apart in the source and are kept apart here.", "data": [{"smiles": "CCCC[C@H](NC(=O)[C@H](Cc1c[nH]c2ccccc12)NC(=O)CNC(=O)[C@H](Cc1ccc(O)cc1)NC(=O)[C@H](C)NC(=O)CC[C@@H](NC(=O)CC[C@@H](NC(=O)CC[C@@H](NC(=O)CC[C@@H](NC(=O)CC[C@@H](NC(=O)CC[C@@H](NC(=O)CC[C@@H](NC(=O)CC[C@@H](NC(=O)[C@@H](CNC(=O)c1ccc([Si](F)(C(C)(C)C)C(C)(C)C)cc1)NC(=O)CC[C@H](C(=O)O)N1CCN(CC(=O)O)CCN(CC(=O)O)CCN(CC(=O)O)CC1)C(=O)O)C(=O)O)C(=O)O)C(=O)O)C(=O)O)C(=O)O)C(=O)O)C(=O)O)C(=O)N[C@@H](CC(=O)O)C(=O)N[C@@H](Cc1ccccc1)C(N)=O", "note": "[(R)-DOTAGA-rhCCK-18]", "values": [{"measurement": "IC50", "setting": "CCK-2R [1]", "value": "20.4 ± 2", "unit": "nM"}]}, {"smiles": "CCCC[C@H](NC(=O)[C@H](Cc1c[nH]c2ccccc12)NC(=O)CNC(=O)[C@H](Cc1ccc(O)cc1)NC(=O)[C@H](C)NC(=O)CC[C@@H](NC(=O)CC[C@@H](NC(=O)CC[C@@H](NC(=O)CC[C@@H](NC(=O)CC[C@@H](NC(=O)CC[C@@H](NC(=O)CC[C@@H](NC(=O)CC[C@@H](NC(=O)[C@@H](CNC(=O)c1ccc([Si](F)(C(C)(C)C)C(C)(C)C)cc1)NC(=O)CN1CCN(CC(=O)O)CCN(CC(=O)O)CCN(CC(=O)O)CC1)C(=O)O)C(=O)O)C(=O)O)C(=O)O)C(=O)O)C(=O)O)C(=O)O)C(=O)O)C(=O)N[C@@H](CC(=O)O)C(=O)N[C@@H](Cc1ccccc1)C(N)=O", "note": "[[^18F]F-[^natLu]Lu-DOTA-rhCCK-18, metal not drawn]", "values": [{"measurement": "tissue uptake at 1 h", "setting": "[2]; CB17-SCID, mouse, kidney, total radioactivity, 1 h p.i., read-out: Kidney (K) value, µPET/CT", "value": 146, "unit": "%ID/g"}, {"measurement": "tissue uptake at 1 h", "setting": "[2]; CB17-SCID, mouse, tumor, total radioactivity, 1 h p.i., read-out: Tumor (T) value, µPET/CT", "value": 31.2, "unit": "%ID/g"}, {"measurement": "tissue uptake at 1 h", "setting": "[2]; bone, µPET/CT mouse, read-out: bone uptake", "value": 1.69, "unit": "%ID/g"}]}, {"smiles": "CCCC[C@H](NC(=O)[C@H](Cc1c[nH]c2ccccc12)NC(=O)CNC(=O)[C@H](Cc1ccc(O)cc1)NC(=O)[C@H](C)NC(=O)CC[C@@H](NC(=O)CC[C@@H](NC(=O)CC[C@@H](NC(=O)CC[C@@H](NC(=O)CC[C@@H](NC(=O)CC[C@@H](NC(=O)CC[C@@H](NC(=O)CC[C@@H](NC(=O)[C@@H](CNC(=O)c1ccc([Si](F)(C(C)(C)C)C(C)(C)C)cc1)NC(=O)CN1CCN(CC(=O)O)CCN(CC(=O)O)CCN(CC(=O)O)CC1)C(=O)O)C(=O)O)C(=O)O)C(=O)O)C(=O)O)C(=O)O)C(=O)O)C(=O)O)C(=O)N[C@@H](CC(=O)O)C(=O)N[C@@H](Cc1ccccc1)C(N)=O", "note": "[[^18F]F-[^natLu]Lu-DOTA-rhCCK-18] [metal not drawn]", "values": [{"measurement": "logD7.4", "setting": "[3]; n-octanol/PBS pH 7.4", "value": "−2.71 ± 0.04"}]}, {"smiles": "CCCC[C@H](NC(=O)[C@H](Cc1c[nH]c2ccccc12)NC(=O)CNC(=O)[C@H](Cc1ccc(O)cc1)NC(=O)[C@H](C)NC(=O)[C@@H](CCC(=O)O)NC(=O)[C@@H](CCC(=O)O)NC(=O)[C@@H](CCC(=O)O)NC(=O)[C@@H](CCC(=O)O)NC(=O)[C@@H](CCC(=O)O)NC(=O)[C@@H](CCC(=O)O)NC(=O)CC[C@H](C(=O)O)N1CCN(CC(=O)O)CCN(CC(=O)O)CCN(CC(=O)O)CC1)C(=O)N[C@@H](CC(=O)O)C(=O)N[C@@H](Cc1ccccc1)C(N)=O", "note": "[[^177Lu]Lu-(R)-DOTAGA-PP-F11N, metal not drawn]", "values": [{"measurement": "logD", "setting": "[3]; pH 7.4", "value": "-3.95 ± 0.06"}]}, {"smiles": "CCCC[C@H](NC(=O)[C@H](Cc1c[nH]c2ccccc12)NC(=O)CNC(=O)[C@H](Cc1ccc(O)cc1)NC(=O)[C@H](C)NC(=O)[C@@H](CCC(=O)O)NC(=O)[C@@H](CCC(=O)O)NC(=O)[C@@H](CCC(=O)O)NC(=O)[C@@H](CCC(=O)O)NC(=O)[C@@H](CCC(=O)O)NC(=O)[C@@H](CCC(=O)O)NC(=O)CN1CCN(CC(=O)O)CCN(CC(=O)O)CCN(CC(=O)O)CC1)C(=O)N[C@@H](CC(=O)O)C(=O)N[C@@H](Cc1ccccc1)C(N)=O", "note": "[[^177Lu]Lu-DOTA-PP-F11N, metal not drawn]", "values": [{"measurement": "activity uptake in the tumor", "setting": "[4]", "value": "1.9 ± 0.8", "unit": "%ID/g"}, {"measurement": "Internalization Values (%) 1 h", "setting": "CCK-2R [5]; 1 h", "value": "6.44 ± 0.32", "unit": "%"}, {"measurement": "Internalization Values (%) 2 h", "setting": "CCK-2R [5]; 2 h", "value": "10.1 ± 0.4", "unit": "%"}, {"measurement": "Internalization Values (%) 4 h", "setting": "CCK-2R [5]; 4 h", "value": "17.5 ± 1.0", "unit": "%"}, {"measurement": "Internalization Values (%) 6 h", "setting": "CCK-2R [5]; 6 h", "value": "22.4 ± 0.6", "unit": "%"}, {"measurement": "logD", "setting": "[3]; n-octanol/PBS pH 7.4, read-out: logD7.4", "value": "< -4"}]}]}
